Patent US20190239509A1, “METHOD OF CONTROLLING PLANTS” (SYNGENTA PARTICIPATIONS AG, priority 2016, published 2019)

Columns and labels:
Type in all cases: in vivo
[1] = system: ECHCG (Echinochloa crus-galli); test: B1 glasshouse post-emergence herbicidal activity, ECHCG; conditions: after 14 days, 100=total damage, 0=no damage
Procedure: (§1) Seeds of a variety of test species HORVW (Hordeum vulgare—barley), ABUTH (Abutilon theophrasti), AMARE (Amaranthus retroflexus) and ECHCG (Echinochloa crus-galli) were sown in standard soil in pots. After cultivation for 10 days cultivation under controlled conditions in a glasshouse (at 24/16° C., day/night; 14 hours light; 65% humidity), the plants were sprayed with an aqueous spray solution derived from the formulation of the technical active ingredient in 0.6 ml acetone and 45 ml formulation solution containing 10.6% Emulsogen EL (Registry number 61791-12-6), 42.2% N-methyl pyrrolidone, 42.2% dipropylene glycol monomethyl ether (CAS RN 34590-94-8) and 0.2% X-77 (CAS RN 11097-66-8).
(§2) The test plants were then grown in a glasshouse under controlled conditions in a glasshouse (at 24/16° C., day/night; 14 hours light; 65% humidity) and watered twice daily. After 14 days, the test was evaluated (100=total damage to plant; 0=no damage to plant).

[2] = system: HORVW (Hordeum vulgare—barley); test: B1 glasshouse post-emergence herbicidal activity, barley; conditions: after 14 days, 100=total damage, 0=no damage
Procedure: as §1, §2

[3] = system: ABUTH (Abutilon theophrasti); test: B1 glasshouse post-emergence herbicidal activity, ABUTH; conditions: after 14 days, 100=total damage, 0=no damage
Procedure: as §1, §2

[4] = system: AMARE (Amaranthus retroflexus); test: B1 glasshouse post-emergence herbicidal activity, AMARE; conditions: after 14 days, 100=total damage, 0=no damage
Procedure: as §1, §2

[5] = system: Amaranthus viridis (AMAVI); test: B2 drilled field trial Brazil, post-emergence, AMAVI; conditions: 100 g ai/ha, 100=total damage, 0=no damage
Procedure: (§3) Seeds of a variety of test species were used in drilled field trials to look at the control of important weed species present in corn crops as well as the effect on soybean (a volunteer crop in corn). Trials were carried out in Brazil in the summer season.
(§4) Plot size was 10-12 m^2, and two replicates were carried out per treatment. Plants were treated post-emergence at the 4 leaf stage. Fungicides and insecticides were used as necessary for plant health. The test was evaluated at 7 and 30 days after application (Amaranthus viridis (AMAVI), Bidens pilosa (BIDPI), Euphorbia heterophylla (EPPHL)) and 9 and 37 days after application (Brachiaria plantaginea (BRAPL) and soybean (Glycine max GLXMA) with 100=total damage to plant and 0=no damage to plant.
(§5) Expected results were calculated using the Colby Formula.

[6] = system: Brachiaria plantaginea (BRAPL); test: B2 drilled field trial Brazil, post-emergence, BRAPL; conditions: 100 g ai/ha, 100=total damage, 0=no damage
Procedure: as §3, §4, §5

Bidens pilosa (BIDPI) = test: B2 drilled field trial Brazil, post-emergence, BIDPI; conditions: 100 g ai/ha, 100=total damage, 0=no damage
Procedure: as §3, §4, §5

[7] = system: Euphorbia heterophylla (EPPHL); test: B2 drilled field trial Brazil, post-emergence, EPPHL; conditions: 100 g ai/ha, 100=total damage, 0=no damage
Procedure: as §3, §4, §5

[8] = system: soybean (Glycine max GLXMA); test: B2 drilled field trial Brazil, post-emergence, soybean; conditions: 100 g ai/ha, 100=total damage, 0=no damage
Procedure: as §3, §4, §5

| Structure (SMILES) | ECHCG ([1]; Rate 125 g/ha) | ECHCG ([1]; Rate 250 g/ha) | HORVW ([2]; Rate 125 g/ha) | HORVW ([2]; Rate 250 g/ha) | ABUTH ([3]; Rate 125 g/ha) | ABUTH ([3]; Rate 250 g/ha) | AMARE ([4]; Rate 125 g/ha) | AMARE ([4]; Rate 250 g/ha) | AMAVI 7DAA Observed ([5]; 7 days after application) | AMAVI 30 DAA Observed ([5]; 30 days after application) | BRAPL 9DAA Observed ([6]; 9 days after application) | BRAPL 37 DAA Observed ([6]; 37 days after application) | BIDPI 7DAA Observed (Bidens pilosa (BIDPI); 7 days after application) | BIDPI 30 DAA Observed (Bidens pilosa (BIDPI); 30 days after application) | EPPHL 7DAA Observed ([7]; 7 days after application) | EPPHL 30 DAA Observed ([7]; 30 days after application) | GLXMA 9DAA Observed ([8]; 9 days after application) | GLXMA 37 DAA Observed ([8]; 37 days after application) |
| --- | --- | --- | --- | --- | --- | --- | --- | --- | --- | --- | --- | --- | --- | --- | --- | --- | --- | --- |
| COc1ccc(-n2nc(C)cc(C(=O)C3C(=O)C4CCC(C4)C3=O)c2=O)cc1OC (stereo not drawn) [Compound 2.1, 3-[2-(3,4-dimethoxyphenyl)-6-methyl-3-oxo-pyridazine-4-carbonyl]bicyclo[3.2.1]octane-2,4-dione] | 100 | 100 | 0 | 0 | 100 | 100 | 100 | 100 |  |  |  |  |  |  |  |  |  |  |
| COc1ccc(-n2nc(C)cc(C(=O)C3C(=O)CC(C)CC3=O)c2=O)cc1OC (stereo not drawn) [Compound 2.2] | 100 | 100 | 0 | 0 | 100 | 100 | 100 | 100 |  |  |  |  |  |  |  |  |  |  |
| COc1ccc(-n2nc(C)cc(C(=O)C3C(=O)CCCC3=O)c2=O)cc1OC [Compound 2.3, 2-[2-(3,4-Dimethoxyphenyl)-6-methyl-3-oxo-pyridazine-4-carbonyl]cyclohexane-1,3-dione] | 100 | 100 | 0 | 0 | 100 | 100 | 100 | 100 | 65 | 70 | 78 | 37 | 45 | 43 | 58 | 42 | 55 | 100 |
| COc1ccc(-n2nc(C)cc(C(=O)C3C(=O)CC(C)(C)CC3=O)c2=O)cc1OC [Compound 2.4] | 100 | 100 | 0 | 10 | 100 | 100 | 100 | 100 |  |  |  |  |  |  |  |  |  |  |
| COc1ccc(-n2nc(C)cc(C(=O)C3C(=O)C(C)(C)C(=O)C(C)(C)C3=O)c2=O)cc1OC [Compound 2.5] | 90 | 90 | 0 | 0 | 100 | 100 | 100 | 100 |  |  |  |  |  |  |  |  |  |  |
| COc1ccc(-n2nc(C3CC3)cc(C(=O)C3C(=O)C4CCC(C4)C3=O)c2=O)cc1OC (stereo not drawn) [Compound 2.9] | 100 | 100 | 0 | 10 | 100 | 100 | 90 | 100 |  |  |  |  |  |  |  |  |  |  |
| COc1ccc(-n2nc(C3CC3)cc(C(=O)C3C(=O)C(C)(C)C(=O)C(C)(C)C3=O)c2=O)cc1OC [Compound 2.11, 6-[6-cyclopropyl-2-(3,4-dimethoxyphenyl)-3-oxo-pyridazine-4-carbonyl]-2,2,4,4-tetramethyl-cyclohexane-1,3,5-trione] | 100 | 100 | 0 | 0 | 100 | 100 | 100 | 100 |  |  |  |  |  |  |  |  |  |  |
